{"source": "patent US8507411B2", "about": "“Neoglycorandomization and digitoxin analogs” (priority 2004, dated 2013)", "key": {"NCI-H460": {"system": "NCI-H460", "assay": "Cell titer-glo cytotoxicity assay, NCI-H460", "type": "cell-based, human", "description": "(§1) FIG. 7 is a graphical summary of the results of the IC50 data from cytotoxicity assays. […] In the assay, live cells are quantified by measuring the luminescent signal resulting from the reaction between cellular ATP and luciferin to form oxyluciferin. The IC50 value for each compound represents at least four replicates of dose-response experiments conducted over six concentrations at two-fold dilutions.\n(§2) The anticancer activities of ten panel analogues (3a-c,e,f and 4a-c,e,f) and digitoxin (1) were assessed using a high-throughput cytotoxicity assay on four human cancer cell lines, (FIG. 7) representing lung, colorectal, and ovarian carcinomas, as well as NCI/ADR-RES, a drug-resistant ovarian carcinoma line (For years, NCI/ADR-RES cells have been misidentified as drug-resistant MCF-7 breast adenocarcinoma cells, but recently this line has been shown definitively to be a drug-resistant line derived from OVCAR-8 ovarian adenocarcinoma cells. Liscovitch, M. et al., Cancer Lett. (2007) 245, 350-352.\n(§3) All cell lines were maintained as previously reported (Langenhan, J. M. et al., Proc. Natl. Acad. Sci. (2005) 102, 12305-12310.) Cells were harvested by trypsinization using 0.25% trypsin and 0.1% EDTA and then counted in a Cellometer Auto T4 cell counter (Nexcelom, inc), before dilution for assay plating. […] Each plate was read for luminescence. […]"}, "HT-29": {"system": "HT-29", "assay": "Cell titer-glo cytotoxicity assay, HT-29", "type": "cell-based, human", "conditions": "HT-29, Cell titer-glo", "description": "as §1, §2, §3"}, "[1]": {"assay": "Hydrolytic stability of the neoglycosidic linkage", "type": "physicochemical", "conditions": "neutral or basic conditions (pH 7, pH 9), 3 mM in 1:1 DMSO/buffer, one month", "description": "FIG. 4 is a graphic representation of the results of studies on the hydrolytic stability of neoglycoside 4α. The chemical stability of the neoglycosidic linkage was examined by monitoring the hydrolytic degradation of neoglycoside 4α in a 3 mM solution of 1:1 DMSO/buffer. Three buffers were used, 50 mM acetate buffer (pH 5), 50 mM phosphate buffer (pH 7), and 50 mM Tris buffer (pH 9). Neoglycoside degradation was monitored by reverse phase HPLC on an Agilent Zorbax Eclipse XDB-C8 column (4.6×150 mm) with a flow rate of 0.8 mL min^−1 and a linear gradient of 49% CH3OH/H2O to 89% CH3OH/H2O over 20 min. At t=0, neoglycoside 4α in 500 μL DMSO was added to 500 μL buffer, and the resulting solution was vortexed for 40 sec, then immediately injected onto the HPLC. Peak areas at 220 nm were used to estimate the neoglycoside/aglycon ratio, which is reported as “percent neoglycoside remaining” [Aneoglycoside/(Aneoglycoside+Aaglycon)] for each of the three buffer systems.\nHydrolytic Stability of 4α. The chemical stability of the neoglycosidic linkage was examined by monitoring the hydrolytic degradation of neoglycoside 4α in a 3 mM solution of 1:1 DMSO/buffer. Three buffers were used, 50 mM acetate buffer (pH 5), 50 mM phosphate buffer (pH 7), and 50 mM Tris buffer (pH 9). Neoglycoside degradation was monitored by reverse phase HPLC on an Agilent Zorbax Eclipse XDB-C8 column (4.6×150 mm) with a flow rate of 0.8 mL min^−1 and a linear gradient of 49% CH3OH/H2O to 89% CH3OH/H2O over 20 min. At t=0, neoglycoside 4α in 500 μL DMSO was added to 500 μL buffer, and the resulting solution was vortexed for 40 sec, then immediately injected onto the HPLC. Peak areas at 220 nm were used to estimate the neoglycoside/aglycon ratio, which is reported as “percent neoglycoside remaining” [Aneoglycoside/(Aneoglycoside+Aaglycon)] for each of the three buffer systems (see FIG. 4).\nThe chemical stability of the neoglycosidic linkage was examined by monitoring the hydrolytic degradation of neoglycoside 4α in a 3 mM solution of 1:1 DMSO/buffer using buffers at three different pHs."}}, "data": [{"compound": "CON([C@H]1CC[C@@]2(C)[C@H](CC[C@@H]3[C@@H]2CC[C@]2(C)[C@@H](C4=CC(=O)OC4)CC[C@]32O)C1)[C@H]1OC[C@H](O)[C@@H](O)[C@@H]1O", "note": "[23β, L-xyloside]", "values": [{"measurement": "IC50", "setting": "NCI-H460", "value": 55, "unit": "nM"}, {"measurement": "IC50", "setting": "HT-29", "value": 66, "unit": "nM"}]}, {"compound": "CON([C@H]1CC[C@@]2(C)[C@H](CC[C@@H]3[C@@H]2CC[C@]2(C)[C@@H](C4=CC(=O)OC4)CC[C@]32O)C1)[C@H]1OC[C@H](O)[C@H](O)[C@@H]1O", "note": "[5β, L-riboside]", "values": [{"measurement": "IC50", "setting": "HT-29", "value": 80, "unit": "nM"}]}, {"compound": "CON([C@H]1CC[C@@]2(C)[C@H](CC[C@@H]3[C@@H]2CC[C@]2(C)[C@@H](C4=CC(=O)OC4)CC[C@]32O)C1)[C@@H]1O[C@H](CO)[C@@H](O)[C@H](O)[C@@H]1O", "note": "[27β, D-mannoside]", "values": [{"measurement": "hydrolytic stability", "setting": "[1]", "value": "no hydrolytic degradation"}]}]}
